# Reference: patent US20140072557A1, “MEDICINAL AGENT FOR SUPPRESSING MALIGNANT TUMOR METASTASIS” (priority 2011, published 2014)
# Columns and labels:
# [1] = test system: A549 cells; experiment: EMT induced by TGF-β1 in A549 cells (morphology, quantitative RT-PCR); format: cell-based; settings: 1 μM hANP, TGF-β1 stimulus
# Method: Using a 6-well dish, the A549 cells were cultured at 1×10^5 cells/well, and the culture medium was replaced with DMEM culture medium free from FBS the next day. After 24 hours of culture, the cells were used in the following experiment.
# An ANP group (ANP solution was added (final concentration: 1 μM)) and a control group (the same amount of physiological saline was added) were prepared, and after 2 hours from the addition, TGF-β1 was added so that the final concentration would be 0.125, 0.25, 0.5, 1.0, and 2.0 ng/mL. After 24 hours had passed, the morphological change in the cells was observed under a microscope and photographed (FIG. 3).
# Then, total RNA was collected using TRIZOL total RNA isolation reagent (made by Invitrogen), cDNA was synthesized using reverse transcriptase, and the mRNA levels of E-cadherin, N-cadherin, VEGF-A, PDGF-B, TNF-α, and IL-6 were measured by quantitative RT-PCR. It is known that in EMT, the expression of E-cadherin decreases while the expression of N-cadherin increases. The expression ratio of N-cadherin/E-cadherin is considered to be useful as an indicator of the degree of EMT.
# [2] = test system: A549 cells; experiment: Intracellular cGMP level in A549 cells on natriuretic peptide stimulus; format: cell-based; settings: 1×10^−11 M to 1×10^−6 M, 10 minutes
# Method: The A549 cells were cultured in a 24-well dish at 4×10^4 cells/well, and the culture medium was replaced with DMEM culture medium free from FCS the next day. To the culture medium, solutions of hANP, hBNP, and hCNP (final concentration: ten-fold serial dilution from 1×10^−11 M to 1×10^−6 M, the same amount of physiological saline was used as a control) were separately added. After 10 minutes passed, 400 μL of cooled 70% ethanol (containing 0.1 N hydrochloric acid) was added, and ultrasonication was performed for a short time. The treated solution was lyophilized, and the cGMP level was measured using Cyclic GMP Assay kit (made by Yamasa Corp.).
# [3] = test system: A549 cells; experiment: Apoptosis induction, cell viability by trypan blue staining, A549 cells; format: cell-based; settings: hANP 1, 5, 10 μM added 4 times, 48 hours
# Method: Using a 96-well dish, the A549 cells were cultured at 1×10^4 cells/well. The culture medium was replaced with DMEM culture medium free from FBS the next day, and after 24-hours culture, the following experiment was conducted.
# To the culture medium, a hANP solution prepared by serial dilution was added so that the final concentration of hANP would be 1, 5, or 10 μM (for the control group, the same amount of physiological saline was added). Further, 2, 4, and 6 hours later, the same amounts of the hANP solutions at the same concentrations were added (for the control group, the same amount of physiological saline was added) (4 times in total). 48 hours later, trypan blue staining was performed and the cell viability (number of living cells/total number of all cells) was determined with the use of an automatic cell counter Countess (registered trademark) (Invitrogen).
# [4] = test system: lung cancer patients; experiment: Cancer recurrence after cancer resection surgery in lung cancer patients; format: in vivo, human; settings: hANP 0.025 μg/kg/min continuous from surgery for 3 days, about 2 years follow-up, stages IA-III
# Method: It is reported that lung cancer patients whose BNP level in the blood is 30 pg/mL or higher are at high risk of postsurgical complications after a cancer removal surgery. In this experiment, lung cancer patients were measured for the BNP level in the blood before cancer removal surgery. A part of the patients having the BNP level in the blood of 30 pg/mL or higher and patients judged to be at high risk of postsurgical complications by the doctor in charge were assigned to the hANP group (52 patients in total; cancer stage breakdown was IA: 26 patients […], IB: 16 patients […], II: 7 patients […], and III: 3 patients (6%)). The control group consisted of patients assigned regardless of the BNP level in the blood (287 patients in total, cancer stage breakdown was IA: 155 patients (54%), IB: 65 patients (23%), II: 35 patients (12%), and III: 32 patients (11%)). To the hANP group, hANP (trade name: HAMP for INJECTION 1000, non-bolus, made by DAIICHI SANKYO Co., Ltd.) was continuously administered at 0.025 μg/kg/min starting during the surgery of lung cancer and the administration continued for 3 days after surgery. Before the surgery and for 4 days after surgery, each patient was measured for the blood pressure (systolic and diastolic), the heart rate, and the urine volume. […]
# [5] = test system: mouse melanoma B16-F10; experiment: Mouse tail vein injection metastasis test, mouse melanoma B16-F10; format: in vivo, mice; settings: 0.5 μg/kg/min by subcutaneous osmotic pump, 2 weeks
# Method: 6-week-old male […] mice were used (purchased from Japan SLC, Inc.). Mouse melanoma B16-F10 was purchased from ATCC, and cultured in DMEM (Life Technologies Corp.) containing 10% FCS under 5% CO2 at 37° C. The cells in a subconfluent state were treated with EDTA-trypsin, centrifuged, and then suspended in serum free DMEM so as to be 5×10^6 cells/mL. The melanoma cell suspension (100 μL/mouse, 5×10^5 cells) was injected to the tail vein of the mice. The osmotic pumps used were MODEL2002 (for 14-day administration) made by ALZET (Cupertino, Calif,.).
# Mice into which an osmotic pump containing 0.9% physiological saline was subcutaneously implanted in the back were assigned to the control group. Similarly, an osmotic pump containing hANP prepared for administration at 0.5 μg/kg/min was subcutaneously implanted into each mouse in the ANP group, an osmotic pump containing mouse BNP prepared for administration at 0.5 μg/kg/min was subcutaneously implanted into each mouse in the BNP group, and an osmotic pump containing hCNP-22 prepared for administration at 2.5 μg/kg/min was subcutaneously implanted into each mouse in the CNP group. To the mice in the sildenafil group, sildenafil citrate at a dosage of 20 mg/kg was intraperitoneally administered once daily. […]
smiles,measurement,setting,value
"CC[C@H](C)[C@@H]1NC(=O)[C@H](CCCNC(=N)N)NC(=O)[C@H](CC(=O)O)NC(=O)[C@H](CCSC)NC(=O)[C@H](CCCNC(=N)N)NC(=O)CNC(=O)CNC(=O)[C@H](Cc2ccccc2)NC(=O)[C@@H](NC(=O)[C@H](CO)NC(=O)[C@H](CO)NC(=O)[C@H](CCCNC(=N)N)NC(=O)[C@H](CCCNC(=N)N)NC(=O)[C@H](CC(C)C)NC(=O)[C@@H](N)CO)CSSC[C@@H](C(=O)N[C@@H](CC(N)=O)C(=O)N[C@@H](CO)C(=O)N[C@@H](Cc2ccccc2)C(=O)N[C@@H](CCCNC(=N)N)C(=O)N[C@@H](Cc2ccc(O)cc2)C(=O)O)NC(=O)CNC(=O)[C@H](CC(C)C)NC(=O)CNC(=O)[C@H](CO)NC(=O)[C@H](CCC(N)=O)NC(=O)[C@H](C)NC(=O)CNC1=O [hANP, carperitide]",expression of E-cadherin under TGF-β1 stimulus,[1],inhibited decrease
same,expression of N-cadherin induced by TGF-β1,[1],significantly suppressed increase
same,expression ratio of N-cadherin/E-cadherin,[1],significantly decreased
same,gene expression of IL-6 (mRNA level),[1],significantly suppressed
same,gene expression of PDGF-B (mRNA level),[1],significantly suppressed
same,gene expression of TNF-α (mRNA level),[1],significantly suppressed
same,gene expression of VEGF-A (mRNA level),[1],significantly suppressed
same,morphological change associated with EMT induced by TGF-β1,[1]; 24 hours,significantly suppressed
same,intracellular cGMP level,[2],increased the intracellular cGMP level of the A549 cells in a concentration-dependent manner
same,number of living cancer cells (cell viability),[3],decreased in a hANP-concentration-dependent manner
same,early recurrence of cancer (recurrence-free survival),[4],early recurrence was not observed
same,lung metastasis of melanoma (number of nodules),[5],significantly suppressed
